Assay results taken from US9775832B2, “Pharmaceutical composition for oral administration” (ASTELLAS PHARMA INC., priority 2014, dated 2017).
Values after ≈ are worked out from the molar mass of the structure shown.

Experiments:
[1] = Measurement of related substances by HPLC after storage in glass bottles (Experimental Example 4); format: physicochemical
Experimental: The solid dispersion of Example 1 and the amorphous form of compound A of Example 2 were put into glass bottles, and the bottles were allowed to stand under the predetermined conditions, after being sealed or without being sealed, and the amount of each related substance of compound A was measured by an HPLC method.
The measurement of related substances was carried out in accordance with the following conditions (the following tests for related substances were carried out in a similar fashion.): • As a HPLC column, Unison UK-Phenyl (particle size=3 μm, 4.6 mm (inner diameter)×25 cm, manufactured by Imtakt), or its equivalent, was used, and maintained at 40° C. • As mobile phase A, a mixed solution (4:1) of a perchlorate solution (pH 4.0) and methanol was used. • As mobile phase B, acetonitrile was used. • Sample solutions were prepared by diluting samples with a mixed solution of mobile phase A/mobile phase B (7:3) so that the concentration of compound A became 250 μg/mL. • Related substances were measured using an ultraviolet absorption spectrophotometer (wavelength: 225 nm), in accordance with the gradient program shown in Table 3 below, and at a flow rate in which the retention time of compound A was about 26 minutes. The percentage of the peak area of each related substance was calculated, as a percentage with respect to the total peak area of compound A and its related substances.

[2] = Measurement of solubility (Experimental Example 3); format: physicochemical; settings: Phosphate buffer, room temperature, shaken 120 minutes
Source text: The improved solubility of compound A by amorphization was observed.

[3] = Oral absorption test in dog (Experimental Example 6); format: in vivo; settings: 50 mg of compound A
Experimental: The dogs were made to fast from the evening on the day before the administration (before more than 16 hours from the scheduled administration time) to the final blood collection on the day of the administration (24 hours after the administration). After the end of the final blood collection, food was given in accordance with the feeding amount of the breeding facility (the fasting period was from 24 hours or more to less than 48 hours). Water was not given during a time period from 30 minutes before the administration to 2 hours after the administration, and then, it was free to drink water.

[4] = Powder X-ray diffraction test, crystallinity before and after storage (Experimental Example 5); format: physicochemical; settings: at least 70° C. for 9 days, or 40° C., 75% RH for 1 month; FIG. 2
Experimental: The amorphous form of compound A of Example 2 was put into glass bottles, and the bottles were sealed and allowed to stand under the predetermined conditions, and the crystallinity before and after storage was evaluated using a powder X-ray diffraction method. In “40° C., 75% RH for 1 month (opened)”, the storage was carried out under the conditions where the bottle was not sealed.

[5] = physchem; settings: thermodynamic from solid
[6] = glass bottle not sealed (*), 40° C., 75% RH for 1 month
[7] = glass bottle, sealed, 25° C., 60% RH for 1 month
[8] = glass bottle, sealed, 40° C., 75% RH for 1 month
[9] = glass bottle, sealed, 70° C. for 9 days

## C[C@@H](O)C(=N)NS(=O)(=O)c1cc(C(=O)C(C(=O)c2cc(F)ccc2F)=C2Nc3ccccc3N2)ccc1F [Example 2, (2R)—N-({5-[3-(2,5-difluorophenyl)-2-(1,3-dihydro-2H-benzimidazole-2-ylidene)-3-oxopropanoyl]-2-fluorophenyl}sulfonyl)-2-hydroxypropane imide amide]
[1]; At the beginning of storage
  Maximum related substance: 0.80%
  Total amount of related substances: 0.88%
[1]; at least 70° C. for 9 days, 40° C., 75% RH for 1 month, or 25° C., 60% RH for 1 month
  significant increase in related substances: not observed
[1]; [6]
  Maximum related substance: 0.77%
  Maximum related substance, increased amount from the beginning of the storage: (−0.03) %
  Total amount of related substances: 0.98%
  Total amount of related substances, increased amount from the beginning of the storage: (0.10) %
[1]; [7]
  Maximum related substance: 0.79%
  Maximum related substance, increased amount from the beginning of the storage: (−0.01) %
  Total amount of related substances: 0.99%
  Total amount of related substances, increased amount from the beginning of the storage: (0.11) %
[1]; [8]
  Maximum related substance: 0.79%
  Maximum related substance, increased amount from the beginning of the storage: (−0.01) %
  Total amount of related substances: 0.99%
  Total amount of related substances, increased amount from the beginning of the storage: (0.11) %
[1]; [9]
  Maximum related substance: 0.82%
  Maximum related substance, increased amount from the beginning of the storage: (0.02) %
  Total amount of related substances: 0.85%
  Total amount of related substances, increased amount from the beginning of the storage: (−0.03) %
[2]; pH 6.8, 0.10% Sodium lauryl sulfate, listed as Ex. 2
  Solubility: 326 µg/mL (≈ 599 µM)
[2]; pH 6.8, listed as Ex. 2
  Solubility: 75 µg/mL (≈ 138 µM)
[3]
  AUC0-24 h ratio to the suspension of Example 2: 1.00
  Cmax ratio to the suspension of Example 2: 1.00
  oral absorbability: good oral absorbability
[3]; plasma, suspension in 0.5% methylcellulose
  Cmax: 793 ± 165 ng/mL
[3]; plasma, suspension in 0.5% methylcellulose, read-out: AUC0-24 hr
  AUC(0-t): 4920 ± 1220 ng·h/mL
[4]
  crystallinity after storage (powder X-ray diffraction): maintained the amorphous state alone

## C[C@@H](O)C(=N)NS(=O)(=O)c1cc(C(=O)C(C(=O)c2cc(F)ccc2F)=C2Nc3ccccc3N2)ccc1F [Compound A, (2R)—N-({5-[3-(2,5-difluorophenyl)-2-(1,3-dihydro-2H-benzimidazole-2-ylidene)-3-oxopropanoyl]-2-fluorophenyl}sulfonyl)-2-hydroxypropane imide amide]
[5]; pH 1.2, simulated gastric fluid
  Solubility: ~9.9 µg/mL (≈ 18.2 µM)
[5]; pH 6.8, aqueous buffer
  Solubility: ~9.8 µg/mL (≈ 18 µM)
[2]; pH 6.8, 0.10% Sodium lauryl sulfate, listed as Compound A in crystalline state
  Solubility: 69 µg/mL (≈ 127 µM)
[2]; pH 6.8, listed as Compound A in crystalline state
  Solubility: 15 µg/mL (≈ 27.5 µM)
